Assay results taken from ChEMBL document CHEMBL5143643, “Development of disulfide-functionalized peptides covalently binding G protein-coupled receptors” (Bioorg Med Chem, 2022).
*1 amine or outer side, *2 acyl side, *3 side chain or, on linkers, in order; H or OH if unused. Where a SMILES comes first, the peptide text is derived from it. Cysteamine = C(CS[*:2])N[*:1]

Tests used:
[1] = biological target: T1, Neurotensin receptor type 1 (Homo sapiens, UniProt P30989); experiment: Displacement of [3H]neurotensin from human NTSR1 expressed in CHO cell membranes by radioligand depletion assay; design: species or system Cell membrane
Target sequence in this assay (P30989 whole entry): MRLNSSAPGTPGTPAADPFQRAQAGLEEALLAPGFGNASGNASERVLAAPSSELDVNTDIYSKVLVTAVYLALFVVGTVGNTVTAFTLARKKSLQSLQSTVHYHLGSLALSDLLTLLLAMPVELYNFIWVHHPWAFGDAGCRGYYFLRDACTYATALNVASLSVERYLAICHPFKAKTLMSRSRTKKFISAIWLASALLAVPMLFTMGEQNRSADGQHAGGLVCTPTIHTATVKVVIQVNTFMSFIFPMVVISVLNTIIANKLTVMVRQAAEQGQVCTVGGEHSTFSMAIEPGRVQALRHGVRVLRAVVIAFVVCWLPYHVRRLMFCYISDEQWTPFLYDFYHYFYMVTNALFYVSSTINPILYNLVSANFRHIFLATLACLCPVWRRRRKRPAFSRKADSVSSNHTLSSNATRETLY

[2] = biological target: Neurotensin receptor type 2 (Homo sapiens, UniProt O95665); experiment: Displacement of [3H]NT(8-13) from human NTSR2 expressed in HEK293 cell membranes by radioligand displacement assay; design: species or system Cell membrane
Neurotensin receptor type 2, sequence (O95665 whole entry): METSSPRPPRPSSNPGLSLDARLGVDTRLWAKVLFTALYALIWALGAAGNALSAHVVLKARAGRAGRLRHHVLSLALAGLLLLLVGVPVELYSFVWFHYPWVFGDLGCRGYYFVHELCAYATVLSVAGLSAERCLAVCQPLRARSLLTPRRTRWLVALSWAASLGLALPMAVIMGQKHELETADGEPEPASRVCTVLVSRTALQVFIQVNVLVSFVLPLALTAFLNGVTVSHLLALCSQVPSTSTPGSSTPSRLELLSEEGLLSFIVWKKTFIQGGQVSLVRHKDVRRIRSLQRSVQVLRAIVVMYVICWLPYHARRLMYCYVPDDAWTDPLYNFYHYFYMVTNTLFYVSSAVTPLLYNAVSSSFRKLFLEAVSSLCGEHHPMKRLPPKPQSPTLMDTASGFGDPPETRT

[3] = biological target: T1, Neurotensin receptor type 1; experiment: Displacement of [3H]NT(8-13) from human NTSR1 F2.65C mutant expressed in HEK293 cell membranes assessed as amount of blocking at 1 uM incubated for 120 mins by radioligand depletion assay; conditions: Cell membrane
Target sequence in this assay (P30989 whole entry): as the sequence (P30989 whole entry) above

[4] = biological target: T1, Neurotensin receptor type 1; experiment: Displacement of [3H]NT(8-13) from human NTSR1 F2.65C mutant expressed in HEK293 cell membranes by radioligand displacement assay; design: species or system Cell membrane
Target sequence in this assay (P30989 whole entry, looked up): as the sequence (P30989 whole entry) above

| Ki ([1]; cho) | Ki [2] | Activity [3] | Ki [4] | Ki [1] | SMILES |
| --- | --- | --- | --- | --- | --- |
| 5.3 nM | 17 nM | 88% | 15 nM | – | CC(C)C[C@H](NC(=O)[C@@H](CCSSCCN)NC(=O)[C@H](Cc1ccc(O)cc1)NC(=O)[C@@H]1CCCN1C(=O)[C@H](CCCNC(=N)N)NC(=O)[C@@H](N)CCCNC(=N)N)C(=O)O |
| 7 nM | 5.2 nM | -2% | 40 nM | – | CC[C@H](C)[C@H](NC(=O)[C@H](Cc1ccc(O)cc1)NC(=O)[C@@H]1CCCN1C(=O)[C@H](CCCNC(=N)N)NC(=O)[C@@H](N)CCCNC(=N)N)C(=O)N[C@@H](CC(C)C)C(=O)N[C@H](CCSSCCN)C(=O)O |
| – | 4.2 nM | 6% | 51 nM | 2.4 nM | CC[C@H](C)[C@H](NC(=O)[C@H](Cc1ccc(O)cc1)NC(=O)[C@@H]1CCCN1C(=O)[C@H](CCCNC(=N)N)NC(=O)[C@@H](N)CCCNC(=N)N)C(=O)N[C@@H](CC(C)C)C(=O)N[C@@H](CSSCCN)C(=O)O (H-RRPYILC(Cysteamine)-OH) |
| – | 55 nM | 61% | 28 nM | 49 nM | CC(C)C[C@H](NC(=O)[C@H](CSSCCN)NC(=O)[C@H](Cc1ccc(O)cc1)NC(=O)[C@@H]1CCCN1C(=O)[C@H](CCCNC(=N)N)NC(=O)[C@@H](N)CCCNC(=N)N)C(=O)O |
